Some test systems named below: RXF 393 renal; MALME-3M melanoma; HCC-2998 colon; HOP-92 NSCLC; SN12C renal; PC-3 prostate; A549 NSCLC; HL-60(TB) leukemia; UO-31 renal; K-562 leukemia; MDA-N; MCF7 breast.
Experiment in all cases: NCI-60 cell line screen, 48 h

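Five concentrations, 48 hours, 96-well plates. TGI denotes the concentration required for complete inhibition of growth.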

On to `c1cc(-c2ccc(Oc3ccc(-c4ccncc4)cc3)cc2)ccn1`, for which the TGI was greater than 86 µM in the assay with RXF 393 renal; greater than 44 µM in the assay on MALME-3M melanoma; greater than 54.5 µM in the assay with HCC-2998 colon; greater than 88.6 µM with HOP-92 NSCLC; greater than 100 µM in the assay with SN12C renal; greater than 100 µM with PC-3 prostate. In addition, the TGI with A549 NSCLC was greater than 100 µM; in the assay on HL-60(TB) leukemia it was 11.1 µM; in the assay with UO-31 renal, greater than 100 µM; in the assay on K-562 leukemia it was greater than 100 µM; in the assay on MDA-N it was greater than 100 µM; with MCF7 breast it was greater than 100 µM.

On to `COc1ccc2c(c1)CC[C@@H]1C2CC[C@]2(C)C(=O)N(C)C(=O)CC12` (stereo partly drawn), for which the TGI with RXF 393 renal, in the assay with MALME-3M melanoma, in the assay with HCC-2998 colon, in the assay with HOP-92 NSCLC, in the assay on SN12C renal and in the assay with PC-3 prostate was greater than 100 µM each time. Besides, the TGI with A549 NSCLC, in the assay on HL-60(TB) leukemia, in the assay with UO-31 renal, in the assay with K-562 leukemia, with MDA-N and in the assay on MCF7 breast was greater than 100 µM each time.

For `C=CCSC1=N/C(=C\c2ccco2)C(=O)N1CC=C`, the TGI with RXF 393 renal was 65.7 µM; in the assay with MALME-3M melanoma, greater than 100 µM; with HCC-2998 colon it was greater than 100 µM; in the assay on HOP-92 NSCLC, greater than 100 µM; with SN12C renal, greater than 100 µM; in the assay with PC-3 prostate, greater than 100 µM. In addition, the TGI is greater than 100 µM in the assay on A549 NSCLC; 60.2 µM in the assay on HL-60(TB) leukemia; greater than 100 µM with UO-31 renal; greater than 100 µM in the assay with K-562 leukemia; greater than 100 µM with MDA-N; greater than 100 µM in the assay on MCF7 breast.

As to `COC(=O)C1(Cc2ccccc2C)Cc2ccc(C)cc2C1=O` (stereo not drawn), the TGI in the assay on RXF 393 renal was 96.4 µM; with MALME-3M melanoma, 72.6 µM; with HCC-2998 colon, greater than 100 µM; in the assay on HOP-92 NSCLC it was 71.3 µM; in the assay with SN12C renal, 57.4 µM; in the assay with PC-3 prostate, 92.6 µM. Moreover, the TGI is greater than 100 µM in the assay with A549 NSCLC; 30.9 µM with HL-60(TB) leukemia; greater than 100 µM in the assay on UO-31 renal; greater than 100 µM in the assay on K-562 leukemia; greater than 100 µM with MDA-N; 41 µM with MCF7 breast.

As to `COC(=O)c1c(OC(C)=O)ccc2c1c1c(n2Cc2ccccc2)C(=O)c2ccccc2C1=O`, the TGI with RXF 393 renal amounted to 37.8 µM; with MALME-3M melanoma, 50.7 µM; in the assay on HCC-2998 colon it was 30.3 µM; in the assay with HOP-92 NSCLC, 39.8 µM; in the assay with SN12C renal it was 37.5 µM; in the assay with PC-3 prostate, 59.8 µM. In addition, the TGI in the assay on A549 NSCLC is 83.9 µM; with HL-60(TB) leukemia it was 57.2 µM; in the assay on UO-31 renal it was greater than 100 µM; with K-562 leukemia, 87.3 µM; in the assay with MDA-N, 38.3 µM; in the assay with MCF7 breast, greater than 100 µM.

In the case of `O=C1c2ccccc2-c2ccc(N(Cc3ccc(Br)cc3)Cc3ccc(Br)cc3)cc21`, the TGI with RXF 393 renal, with MALME-3M melanoma, in the assay with HCC-2998 colon, in the assay on HOP-92 NSCLC, in the assay with SN12C renal and with PC-3 prostate was greater than 100 µM in each case. Moreover, the TGI in the assay with A549 NSCLC was greater than 100 µM; with HL-60(TB) leukemia, 46.8 µM; in the assay on UO-31 renal, greater than 100 µM; with K-562 leukemia, greater than 100 µM; in the assay with MDA-N, greater than 100 µM; with MCF7 breast it was greater than 100 µM.

For the molecule `COc1cccc2c(=O)c3c(O)c4cc(N(C)C)ccc4c(OC(C)=O)c3oc12`, the TGI worked out at 18.6 µM in the assay with RXF 393 renal; 8.96 µM in the assay with MALME-3M melanoma; 32.5 µM in the assay on HCC-2998 colon; 39.3 µM with HOP-92 NSCLC; 25.5 µM in the assay on SN12C renal; 56.7 µM with PC-3 prostate. Besides, the TGI with A549 NSCLC is greater than 100 µM; in the assay on HL-60(TB) leukemia, 14.2 µM; with UO-31 renal, 36.4 µM; in the assay on K-562 leukemia, 97.4 µM; in the assay on MDA-N, 27.8 µM; in the assay with MCF7 breast, 61.7 µM.

`C[N+](C)(C)C(Cc1c[nH]c(=S)[nH]1)C(=O)O` (stereo not drawn): the TGI in the assay with RXF 393 renal, in the assay with MALME-3M melanoma, in the assay on HCC-2998 colon, in the assay on HOP-92 NSCLC, in the assay with SN12C renal and with PC-3 prostate was greater than 100 µM in each case. The TGI in the assay on A549 NSCLC, in the assay with HL-60(TB) leukemia, in the assay with UO-31 renal, with K-562 leukemia, in the assay with MDA-N and in the assay with MCF7 breast was greater than 100 µM in each case.

For the molecule `O=C1NC(c2ccccc2)C1N(Cc1ccccc1)Cc1ccccc1` (stereo not drawn), the TGI with RXF 393 renal, with MALME-3M melanoma, in the assay on HCC-2998 colon, in the assay on HOP-92 NSCLC, in the assay on SN12C renal and in the assay with PC-3 prostate was greater than 100 µM throughout. In addition, the TGI with HL-60(TB) leukemia, with UO-31 renal, in the assay with K-562 leukemia, in the assay with MDA-N and in the assay with MCF7 breast was greater than 100 µM each time.

Consider `CCOC(=O)c1c(C)n(-c2ccc(C)cc2)c2c1cc(O)c1[nH]c3c(c12)CCCC3`, for which the TGI in the assay with RXF 393 renal was 27 µM; with MALME-3M melanoma, 37 µM; with HCC-2998 colon it was 34.1 µM; in the assay with HOP-92 NSCLC, 23.6 µM; with SN12C renal, greater than 100 µM; with PC-3 prostate it was 52.3 µM. For the same molecule, the TGI is greater than 100 µM in the assay with A549 NSCLC; 51.7 µM in the assay on HL-60(TB) leukemia; 27.9 µM in the assay with UO-31 renal; 48.8 µM in the assay on K-562 leukemia; 46.6 µM in the assay on MDA-N; 65.6 µM in the assay on MCF7 breast.

For `c1ncc(C23C4C5C6C4C2C6C53)[nH]1` (stereo not drawn), the TGI in the assay with RXF 393 renal, with MALME-3M melanoma, in the assay with HCC-2998 colon, in the assay on HOP-92 NSCLC, in the assay with SN12C renal and in the assay on PC-3 prostate was greater than 100 µM in each case. Also, the TGI in the assay with A549 NSCLC, with HL-60(TB) leukemia, with UO-31 renal, with K-562 leukemia, with MDA-N and in the assay with MCF7 breast was greater than 100 µM throughout.

For the molecule `Cc1c(O)c(OC2OC(CO)C(O)C(O)C2O)cc2c1CC[C@@H]1C2(C)C(=O)C[C@]2(C)[C@@H]([C@@](C)(O)C(O)CCC(C)(C)O)[C@H](O)C[C@@]12C` (stereo partly drawn), the TGI in the assay on RXF 393 renal, in the assay with MALME-3M melanoma, with HCC-2998 colon, in the assay on HOP-92 NSCLC, in the assay on SN12C renal and with PC-3 prostate was greater than 100 µM throughout. In addition, the TGI in the assay with A549 NSCLC, with HL-60(TB) leukemia, in the assay on UO-31 renal, with K-562 leukemia, in the assay with MDA-N and in the assay on MCF7 breast was greater than 100 µM throughout.

For `NC(N)=NCCCS(=O)(=O)Nc1ccc(Nc2c3ccccc3nc3cc([N+](=O)[O-])ccc23)cc1`, the TGI in the assay on RXF 393 renal amounted to 67.2 µM; with MALME-3M melanoma, 37.2 µM; with HCC-2998 colon, 44.1 µM; with HOP-92 NSCLC it was 28.5 µM; in the assay with SN12C renal it was 60.9 µM; in the assay on PC-3 prostate it was 67.9 µM. Also, the TGI in the assay on A549 NSCLC is 36.6 µM; in the assay on HL-60(TB) leukemia, greater than 82.4 µM; in the assay with UO-31 renal, greater than 100 µM; in the assay on K-562 leukemia it was greater than 89.7 µM; in the assay on MDA-N, 81.1 µM; in the assay with MCF7 breast, 87.7 µM.

Regarding `CCCCC[C@H]1CC=CC(=O)O1`, the TGI was 9.16 µM with RXF 393 renal; 33.9 µM in the assay with MALME-3M melanoma; 19.7 µM with HCC-2998 colon; 53.3 µM with HOP-92 NSCLC; 23.8 µM in the assay with SN12C renal; 69.3 µM with PC-3 prostate. Besides, the TGI was 60.5 µM in the assay on A549 NSCLC; 20.3 µM with HL-60(TB) leukemia; 24 µM in the assay with UO-31 renal; greater than 100 µM in the assay with K-562 leukemia; 23 µM with MDA-N; 19.6 µM with MCF7 breast.

With `O=C(CCl)Nc1ccc(-c2nc3ccccc3s2)cc1`, the TGI in the assay on RXF 393 renal was 7.67 µM; in the assay on MALME-3M melanoma, 4.13 µM; in the assay with HCC-2998 colon, 5.91 µM; with HOP-92 NSCLC it was 6.08 µM; with SN12C renal it was 4.2 µM; with PC-3 prostate it was 6.71 µM. In addition, the TGI in the assay with A549 NSCLC stood at 21.8 µM; in the assay with HL-60(TB) leukemia, 5.73 µM; with UO-31 renal, 20.6 µM; with K-562 leukemia, 4.56 µM; with MDA-N it was 7.89 µM; in the assay on MCF7 breast it was 2.39 µM.

As to `CSC(=S)Nc1cc(C)ccn1`, the TGI in the assay on RXF 393 renal, with MALME-3M melanoma, in the assay on HCC-2998 colon, in the assay with HOP-92 NSCLC, in the assay on SN12C renal and in the assay with PC-3 prostate was greater than 100 µM throughout. The TGI in the assay with A549 NSCLC, in the assay with HL-60(TB) leukemia, in the assay on UO-31 renal, with K-562 leukemia, with MDA-N and with MCF7 breast was greater than 100 µM in each case.

Take `Brc1ccc(C2(N3CCCCC3)CCCCC2)s1`: the TGI is 33.3 µM in the assay on RXF 393 renal; 94 µM with MALME-3M melanoma; 35.3 µM with HCC-2998 colon; 51.2 µM with HOP-92 NSCLC; greater than 100 µM in the assay on SN12C renal; greater than 100 µM in the assay with PC-3 prostate. The TGI in the assay on A549 NSCLC was greater than 100 µM; in the assay on HL-60(TB) leukemia, 41.8 µM; in the assay with UO-31 renal it was greater than 100 µM; in the assay on K-562 leukemia, 52.5 µM; with MDA-N, greater than 100 µM; in the assay with MCF7 breast, greater than 100 µM.
